Laboratory results as given in patent US12692253B2, “Antimicrobial compounds and methods” (Curza Global, LLC, priority 2019, dated 2026).

Columns and labels:
E. coli (Ec) = experiment: Broth microdilution minimum inhibitory concentration (MIC), CLSI; type: cell-based; conditions: Escherichia coli, growth medium supplemented with sodium bicarbonate, read-out: E. coli + bicarb MIC
Protocol: A certified BSL-2 laboratory was used for testing. Compounds were evaluated using the broth microdilution minimum inhibitory concentration (MIC) and minimum bactericidal concentration (MBC) assays defined by Clinical and Laboratory Standards Institute (CLSI) in the M26-A guideline against S. aureus (Sa), E. coli (Ec), K. pneumoniae (Kp), A. baumannn (Ab), E. faecalis (Ef) and P. aeruginosa (Pa).
MICs were determined using the Clinical Laboratory and Standards Institute (CLSI) Broth Microdilution Method with slight modification. Clinical and Laboratory Standards Institute (2012). “Methods for dilution antimicrobial susceptibility tests for bacteria that grow aerobically; approved standard, 9th ed. M07-A9 Clinical and Laboratory Standards Institute, Wayne, PA” Serial two-fold dilutions of compounds are prepared in sterile clear round-bottom 96-well plates.
To prepare microdilution trays, two-fold dilutions of antimicrobial agent are prepared in growth medium: Cation-Adjusted Mueller-Hinton Broth (CAMHB), or CAMHB supplemented with sodium bicarbonate (6.25 or 25 mM final concentration prepared from a 1.0M stock solution) or CAMHB supplemented with heat inactivated human serum (Fisher Cat. #BP2657100) 0-50% by adding 200 µL of the highest concentration to be tested (64 μg/mL, for example) in row A, mixing and transferring 100 μL from row A to 100 μL growth medium in row B, then repeating the mixing and transferring through row H of the 96-well plate, discarding the excess […] remaining. This slight modification to the CLSI protocol enables evaluation of MICs for 3 compounds per plate in triplicate, albeit with only 8 compound dilutions (CLSI protocol enables 2 compounds in triplicate with 10 dilutions). Bacterial suspensions are added to a final concentration of 5×10^4 CFU/well by adding 5 μL of a 1:10 dilution of a 0.5 McFarland suspension (1×10^8 CFU/mL) for each bacterium evaluated. Bacterial suspensions were prepared using the growth method described by CLSI. Well-isolated colonies (3-5 from an agar plate) were selected using a sterile loop and used to inoculate a tube containing 4 mL of CAMHB. The cultures are incubated at 35±2° C. until it achieves or exceeds the turbidity of the 0.5 McFarland standard, determined by measuring A600 (usually two to six hours). When growth exceeds a 0.5 McFarland standard, the turbidity is adjusted with broth to be equivalent to a 0.5 McFarland standard.

[1] = tested on: E. coli S30 extract (bacterial protein synthesis); experiment: E. coli S30 extract coupled transcription-translation luciferase assay (inhibition of bacterial protein synthesis); type: biochemical; conditions: class by IC50 or % inhibition @ 1 μM, read-out: S30 IC50 (μM/% inhib.)
Protocol: E. coli S30 extract: Inhibition of bacterial protein synthesis was determined using the E. coli S30 Extract System for Circular DNA (Promega catalog #L-2010) and Luciferase Assay Reagent (Promega catalog #E1500) with slight modifications to a published protocol. Fyfe, C., Sutcliffe, J. A. and Grossman, T. H. (2012) “Development and characterization of a Pseudomonas aeruginosa in vitro coupled transcription-translation assay system for evaluation of translation inhibitors” J. Microbiol. Methods 90(3), 256-261.
Compounds were serial diluted in 0.5 mL microcentrifuge tubes by mixing and transferring 50 μL from the highest concentration to 50 μL of water, mixing and transferring 50 μL of this 2-fold dilution to 50 μL of water. This mixing and transferring was repeated so that there are a total of 8 tubes with serial dilutions of compound at 10× the desired screening concentration that are ultimately diluted to 1× by the addition of S30 luciferase synthesis mixture. Serial dilutions of compounds were added (2 μL) to wells in a black round bottom 96-well plate. Water (2 μL) was used as a “no inhibitor” control in 4 wells/plate. No DNA control reaction mixture (20 μL; see below) was used as a control in 4 wells/plate for background luminescence. S30 luciferase synthesis mixture (18 μL; see below) was added to wells with compounds or water mixture and incubated at 37° C. for 1 hour. Reactions were stopped by transferring to 4° C. refrigerator for 5 minutes then 25 μL of luciferase activity mix was added. Luminescence was measured using a BioTek Synergy HTX plate reader. % Inhibition was determined relative to no inhibitor controls. • S30 luciferase synthesis mixture: • 445 μL S30 extract, circular • 712 μL S30 Premix without amino acids • 4.45 μL pBESTluc™ DNA (1 μg/μL) • 78 μL complete amino acid mixture • 267 μL water • No DNA control: • 20 μL S30 extract, circular • 32 μL S30 Premix without amino acids • 7 μL complete amino acid mixture • 21 μL water Rabbit Reticulocyte lysate

[2] = molecular target: Rabbit Reticulocyte Lysate (eukaryotic protein synthesis); experiment: Rabbit reticulocyte lysate luciferase assay (inhibition of eukaryotic protein synthesis); type: biochemical; conditions: class by IC50 or % inhibition @ 1 μM, read-out: Rabbit reticulocyte IC50 (μM/% inhib.)
Protocol: Inhibition of eukaryotic protein synthesis was determined using the Rabbit Reticulocyte Lysate System, Nuclease-Treated from Promega (catalog #L-4960) with slight modifications to the manufacturer's protocol. Compounds were serial diluted in 0.5 mL microcentrifuge tubes by mixing and transferring 50 μL from the highest concentration to 50 μL of water, mixing and transferring 50 μL of this 2-fold dilution to 50 μL of water. This mixing and transferring was repeated so that there are a total of 8 tubes with serial dilutions of compound at 10× the desired screening concentration that are ultimately diluted to 1× by the addition of rabbit reticulocyte luciferase synthesis mixture. Serial dilutions of compounds were added (2.5 μL) to wells in a black round bottom 96-well plate. Water (2.5 μL) was used as a “no inhibitor” control in 4 wells/plate. No RNA control reaction mixture (2 μL; see below) was used as a control in 4 wells/plate for background luminescence. Rabbit reticulocyte luciferase synthesis mixture (22.5 μL; see below) was added to wells with compounds or water mixture and incubated at 30° C. for 90 minutes. Luciferase assay reagent (25 μL) was added with luminescence measured using a BioTek Synergy HTX plate reader. % Inhibition was determined relative to no inhibitor controls.
Rabbit Reticulocyte Luciferase Synthesis Mixture:
• 1,000 μL rabbit reticulocyte lysate • 5.7 μL Luciferase Control RNA (1 μg/μL) • 26 μL complete amino acid mixture • 395 μL water • No RNA Control • 70 μL rabbit reticulocyte lysate • 2 μL complete amino acid mixture • 28 μL water Minimum Inhibitory Concentration (MIC)

Structure (SMILES)	MIC (E. coli (Ec)) [µg/mL]	IC50 [1] [µM]	IC50 [2] [µM]
C[C@](N)(CO)C(=O)N1CCN(C(=O)Nc2ccn(-c3ccc(CCN4C[C@@H]5[C@@H](N)[C@@H]5C4)cc3)c(=O)n2)CC1 [Compound 85]	> 32	≥ 1	
Cc1cc(-n2ccc(NC(=O)N3CCN(C(=O)[C@@](C)(N)CO)CC3)nc2=O)ccc1CN1C[C@@H]2[C@@H](N)[C@@H]2C1 [Compound 1]		< 0.5	≥ 1
CCOC(=O)C(c1ccc(-n2ccc(NC(=O)N3CCN(C(=O)C(C)(C)N)CC3)nc2=O)cc1)N1C[C@@H]2[C@@H](N)[C@@H]2C1 (some centres unmarked) [Compound 10]		≥ 1	≥ 1
NC[C@@H]1[C@H]2CN(Cc3ccc(-n4ccc(NC(=O)N5CCN(C(=O)C6(CN)CC6)CC5)nc4=O)cc3)C[C@@H]12 [Compound 70]	< 8	≥ 1	
C[C@](N)(CN)C(=O)N1CCN(C(=O)Nc2ccn(-c3ccc(CN4C[C@@H]5[C@@H](N)[C@@H]5C4)cc3)c(=O)n2)CC1 [Compound 44]		≥ 1	≥ 1
CC(C)(N)C(=O)N1CCN(C(=O)Nc2ccn(-c3ccc(CCN4C[C@@H]5[C@@H](N)[C@@H]5C4)cc3)c(=O)n2)CC1 [Compound 84]	> 32	≥ 1	
CC(C)(N)C(=O)N1CCN(C(=O)Nc2ccn(-c3ccc(CN4C[C@@H]5[C@@H](N)[C@@H]5C4)nc3)c(=O)n2)CC1 [Compound 57]		≥ 1	≥ 1
CC(C)(N)C(=O)N1CCN(C(=O)Nc2ccn(-c3ccc(CCN4C[C@H]5CNC[C@H]5C4)cc3)c(=O)n2)CC1 [Compound 159]		≥ 1	≥ 1
CC(C)(N)C(=O)N1CCN(C(=O)Nc2ccn(-c3ccc(CN4C[C@@H]5CN[C@@H]5C4)cc3)c(=O)n2)CC1 [Compound 79]		≥ 1	≥ 1
CC(C)(N)CC(=O)N1CCN(C(=O)Nc2ccn(-c3ccc(CN4C[C@@H]5[C@@H](N)[C@@H]5C4)c(C(F)(F)F)c3)c(=O)n2)CC1 [Compound 9]	> 32	≥ 1	
CC(C)(N)C(=O)N1CCN(C(=O)Nc2ccn(-c3ccc(CN4C[C@@H]5[C@@H](N)[C@@H]5C4)c(C(F)(F)F)c3)c(=O)n2)CC1 [Compound 6]		≥ 1	≥ 1
C[C@](N)(CO)C(=O)N1CCN(C(=O)Nc2ccn(-c3ccc(CN4C[C@@H]5[C@@H](N)[C@@H]5C4)c(C(F)(F)F)c3)c(=O)n2)CC1 [Compound 11]		≥ 1	≥ 1
CC(C)(N)C(=O)N1CCN(C(=O)Nc2ccn(-c3cc(F)c(CN4C[C@@H]5[C@@H](N)[C@@H]5C4)c(F)c3)c(=O)n2)CC1 [Compound 8]	> 32	≥ 1	
NC[C@H](N)C(=O)N1CCN(C(=O)Nc2ccn(-c3ccc(CN4C[C@@H]5[C@@H](N)[C@@H]5C4)cc3)c(=O)n2)CC1 [Compound 43]		≥ 1	≥ 1
CC(Cc1ccc(-n2ccc(NC(=O)N3CCN(C(=O)C(C)(C)N)CC3)nc2=O)cc1)N1C[C@@H]2[C@@H](N)[C@@H]2C1 (some centres unmarked) [Compound 98]		≥ 1	≥ 1
CC(C)(N)C(=O)N1CCN(C(=O)Nc2ccn(-c3ccc(C(C)(C)CN4C[C@@H]5[C@@H](CN)[C@@H]5C4)cc3)c(=O)n2)CC1 [Compound 118]		≥ 1	≥ 1
COc1cc(-n2ccc(NC(=O)N3CCN(C(=O)C(C)(C)N)CC3)nc2=O)ccc1CCN1C[C@@H]2[C@H](N)[C@@H]2C1 [Compound 104]		≥ 1	≥ 1
CC(C)(N)C(=O)N1CCN(C(=O)Nc2ccn(-c3cc(CN4C[C@@H]5[C@@H](N)[C@@H]5C4)cc(C(F)(F)F)c3)c(=O)n2)CC1 [Compound 5]		≥ 1	≥ 1
CC(C)(N)C(=O)N1CCN(C(=O)Nc2ccn(-c3ccc(CCN4CC5(CC(N)C5)C4)cc3)c(=O)n2)CC1 [Compound 92]		< 0.5	≥ 1
CC(C)(N)C(=O)N1CCCN(C(=O)Nc2ccn(-c3ccc(CN4C[C@@H]5[C@@H](N)[C@@H]5C4)cc3)c(=O)n2)CC1 [Compound 26]	< 8	≥ 1	
CC(C)(N)C(=O)N1CCN(C(=O)Nc2ccn(-c3cccc(CCN4C[C@H]5CNC[C@H]5C4)c3)c(=O)n2)CC1 [Compound 158]		≥ 1	
CC(C)(N)C(=O)N1CCN(C(=O)Nc2ccn(-c3ccc(CN4CCN5CCNCC5C4)cc3)c(=O)n2)CC1 (centres unmarked) [Compound 78]		≥ 1	≥ 1
CC(C)(N)C(=O)N1CCN(C(=O)Nc2ccn(-c3ccc(CN4CCC5(CC5N)C4)cc3)c(=O)n2)CC1 (centres unmarked) [Compound 22]		< 0.5	≥ 1
CC(CN1C[C@@H]2[C@@H](N)[C@@H]2C1)c1ccc(-n2ccc(NC(=O)N3CCN(C(=O)C(C)(C)N)CC3)nc2=O)cc1 (some centres unmarked) [Compound 97]		≥ 1	≥ 1
CC(C)(N)C(=O)N1CCN(C(=O)Nc2ccn(-c3ccc(CN4CCC5(CCC(N)CC5)CC4)cc3)c(=O)n2)CC1 [Compound 55]		< 0.5	≥ 1
CC(C)(N)C(=O)N1CCN(C(=O)Nc2ccn(-c3ccc(CCN4C[C@@H]5[C@H](N)[C@@H]5C4)cc3)c(=O)n2)CC1 [Compound 90]		≥ 1	≥ 1
N[C@@H]1[C@H]2CN(CCc3cccc(-n4ccc(NC(=O)N5CCN(C(=O)C6(N)CCC6)CC5)nc4=O)c3)C[C@@H]12 [Compound 88]		≥ 1	≥ 1
N[C@@H]1[C@H]2CN(CCc3cccc(-n4ccc(NC(=O)N5CCNCC5)nc4=O)c3)C[C@@H]12 [Compound 87]		≥ 1	≥ 1
CC(C)(N)C(=O)N1CCN(C(=O)Nc2ccn(-c3ccc(C(C)(C)CN4CC5CC5(CN)C4)cc3)c(=O)n2)CC1 (centres unmarked) [Compound 119]		≥ 1	≥ 1
CC(C)(N)C(=O)N1CCN(C(=O)Nc2ccn(-c3cccc(CCN4C[C@@H]5[C@@H](N)[C@@H]5C4)c3)c(=O)n2)CC1 [Compound 86]		≥ 1	≥ 1
